# Experimental data reported in paper PMC9403987 (Frontiers in Oncology, 2022).
# Assays:
# Assay in all cases: Cell proliferation assay
# Format in all cases: cell-based, Homo sapiens
# [1] = tested on: A172; details: A172, brain, glioblastoma, 72 hours
# Experimental: (§1) To quantify cell proliferation, either the nuclei of live cells were counted following staining with 4’,6-diamidino-2-phenylindole (DAPI; Sigma-Aldrich, Burlington, MA, USA), or metabolically active cells were detected using a CellTiter-Glo assay (Promega Corporation, Madison, WI, USA). Cells from a range of human and mammalian tumor cell lines (American Type Culture Collection, Manassas, VA, USA) were seeded at 4000 cells per well in 100 μL of culture medium in a 96-well plate and incubated overnight at 37°C with 5% CO2. […] In the DAPI staining method, cells were washed using 1× phosphate-buffered saline (PBS; Gibco Thermo Fisher Scientific, Waltham, MA, USA), fixed with 4% formaldehyde, permeabilized with 0.2% Triton X-100 (Sigma-Aldrich), washed again, and stained with 1 μg/mL DAPI to visualize cell nuclei. Cells were washed with 1× PBS three times, and 100 μL 1× PBS was added to each well. Plates were scanned using an IN Cell Analyzer 2200 (GE Healthcare Life Sciences, Chicago, IL, USA) and the number of cells per well was recorded. In the CellTiter-Glo assay, 60 μL of CellTiter-Glo luminescent solution was added to each well after incubation with the test compounds, and the assay plate was scanned using a Tecan Infinite M1000 PRO microplate reader (Tecan Group AG, Männedorf, Switzerland) to record luminescent signals.
# [2] = tested on: COLO 205; details: COLO 205, colon carcinoma, 72 hours
# Experimental: as §1
# [3] = tested on: Caco-2; details: Caco-2, colorectal carcinoma, 72 hours
# Experimental: as §1
# [4] = tested on: DBTRG-05MG; details: brain, glioblastoma, 72 hours
# Experimental: as §1
# [5] = tested on: HCCC9810; details: HCCC9810, liver, hepatocellular carcinoma, 72 hours
# Experimental: as §1
# [6] = tested on: HCT8; details: HCT8, colorectal carcinoma, 72 hours
# Experimental: as §1
# [7] = tested on: HLF; details: lung, epidermoid carcinoma, 72 hours
# Experimental: as §1
# [8] = tested on: IMR32; details: IMR32, brain, neuroblastoma, 72 hours
# Experimental: as §1
# [9] = tested on: JHH-7; details: JHH-7, liver, hepatocellular carcinoma, 72 hours
# Experimental: as §1
# [10] = tested on: LN229; details: LN229, brain, glioblastoma, 72 hours
# Experimental: as §1
# [11] = tested on: LS174T; details: colon carcinoma, 72 hours
# Experimental: as §1
# [12] = tested on: LoVo; details: colorectal carcinoma, 72 hours
# Experimental: as §1
# [13] = tested on: MCF-10A; details: breast, non-malignant mammary epithelial, 72 hours
# Experimental: as §1
# [14] = tested on: MCF-7; details: MCF-7, breast carcinoma, 72 hours
# Experimental: as §1
# [15] = tested on: MDA-MB-231; details: MDA-MB-231, breast carcinoma, 72 hours
# Experimental: as §1
# [16] = tested on: MDA-MB-468; details: MDA-MB-468, breast carcinoma, 72 hours
# Experimental: as §1
# [17] = tested on: MHCC97H; details: liver, hepatocellular carcinoma, 72 hours
# Experimental: as §1
# [18] = tested on: MOG-G-UVW; details: brain, grade III astrocytoma, 72 hours
# Experimental: as §1
# [19] = tested on: NCI-H2228; details: NCI-H2228, lung, NSCLC, 72 hours
# Experimental: as §1
# [20] = tested on: NCI-H23; details: NCI-H23, lung, NSCLC, 72 hours
# Experimental: as §1
# [21] = tested on: NCI-H441; details: NCI-H441, lung carcinoma, 72 hours
# Experimental: as §1
# [22] = tested on: NCI-H520; details: NCI-H520, lung carcinoma, 72 hours
# Experimental: as §1
# [23] = tested on: PC-9; details: PC-9, lung carcinoma, 72 hours
# Experimental: as §1
# [24] = tested on: SK-N-SH; details: brain, neuroblastoma, 72 hours
# Experimental: as §1
# [25] = tested on: SNU-387; details: SNU-387, liver, hepatocellular carcinoma, 72 hours
# Experimental: as §1
# [26] = tested on: SNU-398; details: SNU-398, liver, hepatocellular carcinoma, 72 hours
# Experimental: as §1
# [27] = tested on: SNU-423; details: SNU-423, liver, hepatocellular carcinoma, 72 hours
# Experimental: as §1
# [28] = tested on: SNU-475; details: SNU-475, liver, hepatocellular carcinoma, 72 hours
# Experimental: as §1
# [29] = tested on: SNU-739; details: SNU-739, liver, hepatocellular carcinoma, 72 hours
# Experimental: as §1
# [30] = tested on: SNU-761; details: SNU-761, lung carcinoma, 72 hours
# Experimental: as §1
# [31] = tested on: SNU-886; details: SNU-886, liver, hepatocellular carcinoma, 72 hours
# Experimental: as §1
# [32] = tested on: SW1088; details: SW1088, brain, grade II astrocytoma, 72 hours
# Experimental: as §1
# [33] = tested on: SW620; details: SW620, colon carcinoma, 72 hours
# Experimental: as §1
# [34] = tested on: T47D; details: breast carcinoma, 72 hours
# Experimental: as §1
# [35] = tested on: U87/DK; details: brain, glioblastoma, 72 hours
# Experimental: as §1
structure (smiles),measurement,setting,value
"CCN1CCN(Cc2ccc(Nc3ncc(F)c(-c4cc(F)c5nc(C)n(C(C)C)c5c4)n3)nc2)CC1 [Abemaciclib, abemaciclib, reference compound]",IC50,"[1]; Homo sapiens, A 172",112 nM
same,IC50,[2]; Homo sapiens,432 nM
same,IC50,[3]; Homo sapiens,395 nM
same,IC50,[4]; Homo sapiens,13 nM
same,IC50,[5]; Homo sapiens,71 nM
same,IC50,"[6]; Homo sapiens, HCT-8",384 nM
same,IC50,[7]; Homo sapiens,4950 nM
same,IC50,"[8]; Homo sapiens, IMR-32",25 nM
same,IC50,"[9]; Homo sapiens, JHH7",1170 nM
same,IC50,"[10]; Homo sapiens, LN-229",35 nM
same,IC50,[11]; Homo sapiens,96 nM
same,IC50,[12]; Homo sapiens,25 nM
same,IC50,[13]; Homo sapiens,1770 nM
same,IC50,"[14]; Homo sapiens, MCF7",6 nM
same,IC50,[15]; Homo sapiens,48 nM
same,IC50,[16]; Homo sapiens,1250 nM
same,IC50,[17]; Homo sapiens,137 nM
same,IC50,[18]; Homo sapiens,72 nM
same,IC50,[19]; Homo sapiens,2070 nM
same,IC50,[20]; Homo sapiens,904 nM
same,IC50,[21]; Homo sapiens,40 nM
same,IC50,[22]; Homo sapiens,364 nM
same,IC50,[23]; Homo sapiens,457 nM
same,IC50,[24]; Homo sapiens,80 nM
same,IC50,[25]; Homo sapiens,193 nM
same,IC50,[26]; Homo sapiens,173 nM
same,IC50,[27]; Homo sapiens,48 nM
same,IC50,[28]; Homo sapiens,195 nM
same,IC50,[29]; Homo sapiens,383 nM
same,IC50,[30]; Homo sapiens,54 nM
same,IC50,[31]; Homo sapiens,25 nM
same,IC50,[32]; Homo sapiens,471 nM
same,IC50,"[33]; Homo sapiens, SW-620",10 nM
same,IC50,[34]; Homo sapiens,12 nM
same,IC50,[35]; Homo sapiens,15 nM
CC1=Nc2c(F)cc(-c3nc(Nc4ccc(C5CCN(C)CC5)cn4)ncc3F)cc2C12CCCC2 [GLR2007],IC50,[1],41 nM
same,IC50,[2],194 nM
same,IC50,[3],453 nM
same,IC50,[4],6 nM
same,IC50,[5],30 nM
same,IC50,[6],81 nM
same,IC50,[7],2010 nM
same,IC50,[8],21 nM
same,IC50,[9],578 nM
same,IC50,[10],17 nM
same,IC50,[11],160 nM
same,IC50,[12],13 nM
same,IC50,[13],2730 nM
same,IC50,[14],2 nM
same,IC50,[15],44 nM
same,IC50,[16],1940 nM
same,IC50,[17],66 nM
same,IC50,[18],43 nM
same,IC50,[19],2050 nM
same,IC50,[20],243 nM
same,IC50,[21],7 nM
same,IC50,[22],241 nM
same,IC50,[23],180 nM
same,IC50,[24],32 nM
same,IC50,[25],68 nM
same,IC50,[26],51 nM
same,IC50,[27],19 nM
same,IC50,[28],85 nM
same,IC50,[29],100 nM
same,IC50,[30],8 nM
same,IC50,[31],6 nM
same,IC50,[32],143 nM
same,IC50,[33],10 nM
same,IC50,[34],1 nM
same,IC50,[35],3 nM
